Key:
[1] = tested on: influenza A/PR/8/34 virus; experiment: Survival of mice infected with lethal influenza virus, treatment starting 48 hours post infection (Example 1); assay type: in vivo, C57B16 mice; conditions: lethal dose (10x LD50) i.n.; treatment from 48 hours post infection, twice daily; iota-carrageenan 1200 μg/ml 25 μl per nostril i.n.; TAMIFLU 10 mg/kg/d per os; 10 mice per group
Method: (§1) 40 C57B16 mice were infected with a lethal dose (10× LD50) of influenza A/PR/8/34 virus by intranasal instillation (i.n.) without anaesthesia. After infection of the nasal cavity the virus spreads in the respiratory tract and finally causes a lethal pneumonia in mice. This model mimics the natural influenza infection in humans via the respiratory tract that sometimes causes severe conditions.
The mice were divided into four groups of 10 mice each. 48 hours post infection the mice were treated twice daily i.n. without anaesthesia, wherein the first group was treated with a placebo (25 μl 0.5% aqueous NaCl-solution per nostril) as a negative control and the second group was treated solely with 25 μl per nostril of a aqueous iota-carrageenan polymer solution at a concentration of 1200 μg/ml. Group three and four were fed with 10 mg/kg/d of TAMIFLU® per os, wherein the third group additionally received the iota-carrageenan polymer intranasally at the above concentration whereas the fourth group received the intranasal placebo treatment in addition to the oral Tamiflu® administration. […] The survival of the animals was determined daily as a surrogate parameter for health. The difference in the number of surviving animals was evaluated using a log-rank test.

[2] = tested on: influenza A/PR/8/34 virus; experiment: Mean weight of mice infected with lethal influenza virus, treatment starting 24 hours post infection (Example 2); assay type: in vivo, C57B16 mice; conditions: treatment from 24 hours post infection; single actives: first seven days; combination: from day 3 onwards (pmax<0,004), t-test
[3] = cited from earlier work
[4] = tested on: influenza A/PR/8/34 virus; experiment: Survival of influenza-infected mice, iota-/kappa-carrageenan and zanamivir, treatment starting 48 hours post infection (Example 4); assay type: in vivo; conditions: treatment from 48 hours post infection; zanamivir 0.5 mg/kg/d intranasally; carrageenan polymer 120 μg per day intranasally; 20 mice per group
influenza virus = conditions: cited from earlier work; for reduction of median time until detection of symptom alleviation: individuals of the YOPI group (young, old, pregnant, immunocompromised); for reduction of median time until detectable symptom alleviation: non-risk adults group (not YOPI)
[5] = tested on: influenza A/PR/8/34 virus; experiment: Survival of influenza-infected mice, iota-carrageenan and oseltamivir, treatment starting 48 hours post infection (Example 3); assay type: in vivo; conditions: treatment from 48 hours post infection, twice daily; oseltamivir 5 mg/kg/d orally; iota-carrageenan 1200 μg/ml i.n. (120 μg per day); 10 mice per group
Excerpt: as §1
The infection of the mice was done as described in Example 1. The mice were divided into four groups of 10 mice each. 48 hours post infection the mice were treated twice daily i.n. without anaesthesia, wherein the first group was treated with a placebo (25 μl 0.5% aqueous NaCl-solution per nostril) as a negative control, the second group was treated orally with oseltamivir at a dosage of 5 mg/kg/d, the third group was treated with 25 μl per nostril of an aqueous iota-carrageenan polymer solution at a concentration of 1200 μg/ml, and the fourth group was treated with a combination of iota-carrageenan and oseltamivir twice daily, wherein oseltamivir was administered orally at a dosage of 5 mg/kg/d and the total amount of iota-carrageenan administered intranasally was 100 μl corresponding to an amount of 120 μg per day. The survival of the animals was determined daily as a surrogate parameter for health. The difference in the number of surviving animals was evaluated using a log-rank test.

SMILES	survival of mice (survivors out of 10) [1]	weight loss compared to placebo treatment [2]	Tmax ([3]; in vivo)	absolute bioavailability ([3]; orally administered, on average)	survival of mice (survivors out of 20) [4]	reduction of median time until detection of symptom alleviation (influenza virus)	reduction of median time until detectable symptom alleviation (influenza virus)	survival of mice (survivors out of 10) [5]
CCOC(=O)C1=C[C@@H](OC(CC)CC)[C@H](NC(C)=O)[C@@H](N)C1 [TAMIFLU®, oseltamivir phosphate]	3/10	failed to provide a significant benefit with regard to weight loss	–	–	–	–	–	–
CC(=O)N[C@H]1[C@H]([C@H](O)[C@H](O)CO)OC(C(=O)O)=C[C@@H]1N=C(N)N [zanamivir]	–	–	1 to 2 h	about 2%	7/20	0.98 days	0.57 days	–
CCOC(=O)C1=C[C@@H](OC(CC)CC)[C@H](NC(C)=O)[C@@H](N)C1 [oseltamivir]	–	–	–	–	–	0.74 days	0.55 days	3/10

— patent US10022449B2, “Synergistic antiviral composition and use thereof” (priority 2009, dated 2018)
